Assay results as given in patent publication US9676760B2, “Fused heterocyclic compounds as ion channel modulators” (Gilead Sciences, Inc., priority 2011, dated 2017).

Experiments:
hERG potassium channel = hERG potassium channel (Homo sapiens, UniProt Q12809); experiment: hERG screening assay (PatchXpress, CHO cells); assay type: cell-based; set-up: hERG: unit not given here
Experimental: Compounds were also tested for their effect to block the hERG K^+ channel.
Compounds were screened to test their activity in blocking the hERG potassium channel at AVIVA Biosciences (San Deigo, Calif., USA). The hERG channel is heterologously expressed in a CHO (Chinese Hamster Ovary) cell line. Cells were maintained with standard tissue culture procedures and stable channel expression was maintained with 500 μg/mL G418 in the culture medium. Cells were harvested for testing on the PatchXpress 7000A automated patch clamp with Accumax (Innovative Cell Technologies, San Diego, Calif.) to isolate single cells.
The following solutions were used for electrophysiological recordings. The external solution contained: 2 mM CaCl2; 2 mM MgCl2; 4 mM KCl; 150 mM NaCl; 10 mM Glucose; 10 mM HEPES (pH 7.4 with 1M NaOH; osmolarity, ˜310 mOsm).
hERG channels were activated when the voltage was first stepped to −50 mV for 300 ms from the −80 mV holding potential and then stepped to +20 mV for 5 seconds. At +20 mV the channels open and then largely inactivate, so the currents are relatively small. Upon returning to −50 mV from +20 mV, hERG currents transiently become much larger as inactivation is rapidly removed and then the channel closes. The first step to −50 mV for 300 ms was used as a baseline for measuring the peak amplitude during the step to −50 mV after channel activation. The peak tail current at −50 mV was measured both under control conditions and after addition of compound, each cell serving as its own control.
All compounds were prepared as 10 mM DMSO stocks in glass vials. Stock solutions were mixed by vigorous vortexing and sonication for about 2 minutes at room temperature. For testing, compounds were diluted in glass vials using an intermediate dilution step in pure DMSO and then further diluted to working concentrations in external solution. Dilutions were prepared no longer than 20 minutes before use.
For the electrophysiological recordings, after achieving the whole-cell configuration, cells were monitored for 90 seconds to assess stability and washed with external solution for 66 seconds. The voltage protocol described above was then applied to the cells every 12 seconds and throughout the whole procedure. Only cells with stable recording parameters and meeting specified health criteria were allowed to enter the compound addition procedure.
External solution containing 0.1% DMSO (vehicle) was applied to the cells first to establish the control peak current amplitude. After allowing the current to stabilize for 3 to 5 minutes, 1 μM and then 10 μM test compounds were applied. Each compound concentration was added 4 times and cells were kept in test solution until the effect of the compound reached steady state or for a maximum of 12 minutes. […] Washout in the external solution compartment was performed until the recovery of the current reached steady state.

[1] = test system: Female New Zealand rabbits; experiment: Ischemia-induced ST segment elevation in anesthetized rabbits; assay type: in vivo, rabbit
Experimental: This study was undertaken to determine the anti-ischemic effects of compounds of the present disclosure in an in vivo rabbit model.
Female New Zealand rabbits (3.0-4.0 kg) were purchased from Western Oregon Rabbitry. Animals were housed on a 12-h light and dark cycle and received standard laboratory chow and water. All experiments were performed in accordance with the Guide for the Care and Use of Laboratory Animals published by The National Research Council and with the experimental protocol approved by the Institutional Animal Care Committee of Gilead Sciences, Inc.
Rabbits were anesthetized with ketamine (35 mg/kg) and xylazine (5 mg/kg) intramuscular injection (im). A tracheotomy was performed and the trachea was intubated with an endotracheal tube. The animal was ventilated with room air supplemented with oxygen using a pressure control animal ventilator (Kent Scientific Corp., Torrington, Conn.) at a respiratory rate of 40 strokes/min and peak inspiration pressure of 10 mmH2O, which was adjusted to keep blood gases and pH within the physiological range (iSTAT clinic analyzer, Heska Corp.; Waukesha, Wis.). The left femoral artery was cannulated for the measurement of blood pressure (BP). Blood samples were also withdrawn from femoral artery. The right external jugular vein was cannulated for drug/vehicle administration. Needle electrodes were inserted subcutaneously into the limbs for recording of the surface electrocardiogram (ECG). The heart was exposed via an incision in the 4th intercostal space (4th and/or 5th ribs were cut for a clear surgical vision). The chest was opened and a pericardial cradle was formed using 4 retractors. A coronary artery occluder, comprised of a snare made of 5 cm PE-10 tubing with a 6-0 Prolene polypropylene suture in it, was placed loosely around the left anterior descending artery (LAD) at its origin. Two unipolar electrodes, made with teflon coated silver wire attached to a small patch of filter paper, were attached on the surface of the ischemic and normal regions of the left ventricle to record epicardial electrocardiogram. Reference electrodes were placed in the open incision of the neck. The body temperature of the animal was monitored via a rectal thermometer and maintained at 37-40° C. by adjusting the surface temperature of the surgical table. Regional ischemia (15 min) was induced by ligating the LAD followed by 15 min of reperfusion caused by releasing the ligation. The heart was excised at the end of the experiment and the LAD was re-ligated. The ischemic area was visualized by perfusing the heart with 1% Evans blue in saline and calculated as a percentage of total ventricular weight. Rabbits with ischemic area less than 10% or larger than 25% were excluded from the analysis. Animals were randomly assigned to vehicle and test compound groups. Test compounds was dissolved in 5% NMP, 30% PG, 45% PEG 400 and 20% de-ionized water (dH2O). Test compound was given as an iv bolus at 0.1, 0.2 and 0.4 mg/kg. After 30 min of dosing, the heart was subjected to 15 min of ischemia followed by 15 min of reperfusion.

[2] = molecular target: T1, wild-type human cardiac sodium channel, hNav1.5 (Homo sapiens, UniProt Q14524); experiment: Late INa screening assay (QPatch whole cell patch clamp, HEK293); assay type: cell-based
T1 sequence (Q14524 whole entry): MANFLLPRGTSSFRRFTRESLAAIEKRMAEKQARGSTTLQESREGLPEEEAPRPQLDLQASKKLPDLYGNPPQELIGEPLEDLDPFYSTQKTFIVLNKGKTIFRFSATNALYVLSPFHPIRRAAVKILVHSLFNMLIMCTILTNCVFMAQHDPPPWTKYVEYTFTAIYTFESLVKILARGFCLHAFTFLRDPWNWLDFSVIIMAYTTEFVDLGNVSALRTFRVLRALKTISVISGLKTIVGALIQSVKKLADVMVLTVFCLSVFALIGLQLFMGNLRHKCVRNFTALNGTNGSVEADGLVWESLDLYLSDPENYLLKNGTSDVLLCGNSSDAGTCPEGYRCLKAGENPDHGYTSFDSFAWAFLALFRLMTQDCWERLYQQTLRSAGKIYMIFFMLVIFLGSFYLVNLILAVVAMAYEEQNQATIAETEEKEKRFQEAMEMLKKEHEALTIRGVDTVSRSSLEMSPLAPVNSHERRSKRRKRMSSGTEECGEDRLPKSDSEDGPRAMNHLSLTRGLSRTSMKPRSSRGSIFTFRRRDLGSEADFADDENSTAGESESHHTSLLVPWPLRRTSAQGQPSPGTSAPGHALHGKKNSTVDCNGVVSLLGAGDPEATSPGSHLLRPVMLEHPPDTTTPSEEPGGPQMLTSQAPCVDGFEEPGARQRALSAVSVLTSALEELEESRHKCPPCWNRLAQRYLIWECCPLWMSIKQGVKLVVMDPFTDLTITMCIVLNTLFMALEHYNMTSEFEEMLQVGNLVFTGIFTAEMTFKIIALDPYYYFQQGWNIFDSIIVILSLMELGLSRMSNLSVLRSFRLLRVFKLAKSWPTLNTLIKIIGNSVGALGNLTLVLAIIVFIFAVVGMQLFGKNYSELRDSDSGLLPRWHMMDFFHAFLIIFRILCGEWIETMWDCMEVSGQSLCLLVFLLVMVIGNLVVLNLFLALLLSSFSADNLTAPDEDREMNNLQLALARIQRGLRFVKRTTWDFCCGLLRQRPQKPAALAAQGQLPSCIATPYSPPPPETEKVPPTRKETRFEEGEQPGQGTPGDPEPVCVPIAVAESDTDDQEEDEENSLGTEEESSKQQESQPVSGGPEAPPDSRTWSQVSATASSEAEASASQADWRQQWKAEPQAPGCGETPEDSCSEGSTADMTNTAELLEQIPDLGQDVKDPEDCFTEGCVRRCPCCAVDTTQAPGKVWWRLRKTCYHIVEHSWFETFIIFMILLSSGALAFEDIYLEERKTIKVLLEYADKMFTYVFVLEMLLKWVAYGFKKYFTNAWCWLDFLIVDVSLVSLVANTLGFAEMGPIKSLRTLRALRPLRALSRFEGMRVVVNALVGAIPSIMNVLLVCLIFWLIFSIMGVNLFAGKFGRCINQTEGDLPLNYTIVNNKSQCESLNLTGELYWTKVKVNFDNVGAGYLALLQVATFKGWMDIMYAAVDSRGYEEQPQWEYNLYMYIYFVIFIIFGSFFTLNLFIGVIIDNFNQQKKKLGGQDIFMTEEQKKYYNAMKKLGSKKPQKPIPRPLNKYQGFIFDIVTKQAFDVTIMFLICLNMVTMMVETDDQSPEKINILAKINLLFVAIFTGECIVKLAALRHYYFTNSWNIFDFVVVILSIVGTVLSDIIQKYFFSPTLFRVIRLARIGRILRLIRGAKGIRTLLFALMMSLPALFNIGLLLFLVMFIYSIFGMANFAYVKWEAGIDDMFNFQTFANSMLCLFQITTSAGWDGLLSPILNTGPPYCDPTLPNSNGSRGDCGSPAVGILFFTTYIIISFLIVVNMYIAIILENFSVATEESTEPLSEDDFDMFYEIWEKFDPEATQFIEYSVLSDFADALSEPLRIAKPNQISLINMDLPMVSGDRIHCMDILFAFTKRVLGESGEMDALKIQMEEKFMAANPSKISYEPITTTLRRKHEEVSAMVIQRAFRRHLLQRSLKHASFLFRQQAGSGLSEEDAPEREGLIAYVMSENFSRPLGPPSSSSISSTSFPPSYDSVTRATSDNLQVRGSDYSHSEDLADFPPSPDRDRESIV
Procedure, shortened: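 HEK293 stably expressing hNav1.5 without beta subunits, recorded at 23-25° C. Late current was induced by 10 μM tefluthrin. Cells were depolarized from −120 mV to −20 mV for 250 ms at 0.1 Hz. Compounds were tested at 1 μM in extracellular solution, with baseline taken in 0Na-ECF; output is percent block of late INa.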

[3] = molecular target: T1, wild-type human cardiac sodium channel, hNav1.5; experiment: Peak INa screening assay (tonic and use-dependent block); assay type: cell-based; details: compound at 1 μM
Procedure, shortened: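 Whole-cell automated patch clamp (QPatch) at 23–25°C on HEK293 cells stably expressing hNav1.5 alpha subunit only, with CsF/CsCl pipette solution, pH 7.4. Compound at 1 μM in extracellular solution; bath Na+ could be cut to 20 mM with a nonpermeant cation. Tonic block measured at 0.1 Hz, use-dependent block at 3 Hz.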

[4] = molecular target: T2, hNav 1.1 sodium channel isoform (Homo sapiens, UniProt P35498); experiment: hNav1.1 whole-cell voltage-clamp assay; assay type: cell-based; details: % Inhibition at 1 uM; use-dependent block, 10 Hz; read-out: NAV1.1* UDB-10HZ
T2 construct: expressed in transfected cells; host or cells: HEK293, transient transfection (Qiagen Superfect)

[5] = molecular target: T3, hNav 1.2 sodium channel isoform (Homo sapiens, UniProt Q99250); experiment: hNav1.2 whole-cell voltage-clamp assay; assay type: cell-based; details: use-dependent block, 10 Hz, read-out: NAV1.2* UDB-10HZ
T3 construct: expressed in transfected cells
T3 sequence (Q99250 whole entry, canonical isoform): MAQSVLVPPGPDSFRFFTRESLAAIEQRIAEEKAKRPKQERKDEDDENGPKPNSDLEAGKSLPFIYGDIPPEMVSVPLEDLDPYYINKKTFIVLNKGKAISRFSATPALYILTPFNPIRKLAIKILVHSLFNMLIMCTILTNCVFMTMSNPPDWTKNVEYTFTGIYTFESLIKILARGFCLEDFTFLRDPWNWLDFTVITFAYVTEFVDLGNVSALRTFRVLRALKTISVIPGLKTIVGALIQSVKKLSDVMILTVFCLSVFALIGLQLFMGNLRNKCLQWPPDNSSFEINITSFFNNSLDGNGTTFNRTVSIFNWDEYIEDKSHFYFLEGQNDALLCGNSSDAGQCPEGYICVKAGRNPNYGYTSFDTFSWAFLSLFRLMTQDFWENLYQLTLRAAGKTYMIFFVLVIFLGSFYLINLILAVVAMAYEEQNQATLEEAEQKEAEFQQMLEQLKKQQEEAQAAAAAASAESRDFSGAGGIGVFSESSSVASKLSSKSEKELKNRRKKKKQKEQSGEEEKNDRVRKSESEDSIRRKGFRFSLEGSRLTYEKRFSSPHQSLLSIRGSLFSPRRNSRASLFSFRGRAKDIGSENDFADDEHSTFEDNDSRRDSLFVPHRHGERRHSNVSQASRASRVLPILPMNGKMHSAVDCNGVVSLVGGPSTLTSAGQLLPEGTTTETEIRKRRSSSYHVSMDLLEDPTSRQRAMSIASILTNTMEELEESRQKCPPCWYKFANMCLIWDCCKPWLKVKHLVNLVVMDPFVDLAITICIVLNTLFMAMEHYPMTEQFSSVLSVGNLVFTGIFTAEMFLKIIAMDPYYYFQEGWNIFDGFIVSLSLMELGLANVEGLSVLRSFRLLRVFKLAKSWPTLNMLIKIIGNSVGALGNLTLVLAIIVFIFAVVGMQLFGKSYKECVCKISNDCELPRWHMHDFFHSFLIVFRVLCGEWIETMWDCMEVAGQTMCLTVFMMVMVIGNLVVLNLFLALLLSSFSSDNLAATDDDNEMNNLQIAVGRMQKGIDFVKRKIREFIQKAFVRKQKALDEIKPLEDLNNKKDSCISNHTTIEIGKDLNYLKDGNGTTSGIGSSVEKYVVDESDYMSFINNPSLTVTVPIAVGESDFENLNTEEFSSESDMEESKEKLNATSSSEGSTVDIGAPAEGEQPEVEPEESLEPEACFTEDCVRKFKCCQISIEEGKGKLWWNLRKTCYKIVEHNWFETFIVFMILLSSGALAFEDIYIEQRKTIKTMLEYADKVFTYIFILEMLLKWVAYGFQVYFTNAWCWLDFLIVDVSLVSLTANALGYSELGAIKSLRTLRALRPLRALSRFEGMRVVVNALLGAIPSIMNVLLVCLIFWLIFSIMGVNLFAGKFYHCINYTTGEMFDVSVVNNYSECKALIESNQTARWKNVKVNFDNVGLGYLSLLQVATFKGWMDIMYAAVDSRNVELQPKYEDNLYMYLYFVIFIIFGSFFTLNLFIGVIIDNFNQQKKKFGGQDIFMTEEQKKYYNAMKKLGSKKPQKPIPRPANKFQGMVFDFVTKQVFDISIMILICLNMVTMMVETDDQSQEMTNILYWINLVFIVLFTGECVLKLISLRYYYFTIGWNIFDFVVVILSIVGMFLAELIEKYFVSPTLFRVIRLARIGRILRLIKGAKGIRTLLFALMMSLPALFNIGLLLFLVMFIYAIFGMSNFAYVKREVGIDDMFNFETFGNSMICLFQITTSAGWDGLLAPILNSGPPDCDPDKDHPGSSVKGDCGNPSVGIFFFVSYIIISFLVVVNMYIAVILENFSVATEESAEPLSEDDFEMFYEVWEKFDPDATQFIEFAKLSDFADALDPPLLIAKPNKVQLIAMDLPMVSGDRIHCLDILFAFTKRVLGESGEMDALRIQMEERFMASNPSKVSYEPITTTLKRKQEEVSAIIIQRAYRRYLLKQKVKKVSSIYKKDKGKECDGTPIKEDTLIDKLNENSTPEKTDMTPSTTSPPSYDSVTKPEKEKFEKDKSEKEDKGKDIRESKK
Experimental: Wild-type (WT) cDNA stably transfected in Chinese hamster ovary (CHO) cells is used to record INa. Unless otherwise noted, all reagents are purchased from Sigma-Aldrich (St Louis, Mo., U.S.A.).
Whole-cell voltage-clamp recordings are used to measure the biophysical properties of WT. […] Cells are allowed to stabilize for 10 min after establishment of the whole-cell configuration before current is measured. Series resistance is compensated 90% to assure that the command potential is reached within microseconds with a voltage error<2 mV. Leak currents are subtracted by using an online P/4 procedure and all currents are low-pass Bessel filtered at 5 kHz and digitized at 50 kHz.
For clarity, representative ramp currents are low pass filtered off-line at 50 Hz. Specific voltage-clamp protocols assessing channel activation, fast inactivation and availability during repetitive stimulation are used. Results are presented as mean±SEM.
Tonic block of peak current is measured using a step to −10 mV (20 ms) from a holding potential of −120 mV (0.2 Hz). Use-dependent block of peak current is measured during pulse number 300 of a pulse train (−10 mV, 5 ms, 300 pulses, 10 Hz or 25 Hz) from a holding potential of −120 mV. Two sequential pulse train stimulations are averaged to obtain mean current traces for each recording condition, which are then used for offline subtraction and analysis.
For use-dependent studies, cells are stimulated with depolarizing pulse trains (−10 mV, 5 ms, 300 pulses, 10 and 25 Hz) from a holding potential of −120 mV. Currents are then normalized to the peak current recorded in response to the first pulse in each frequency train. For tonic block studies, peak current is evaluated in response to a 20 ms depolarization to −10 mV (0.2 Hz). […] Results are presented as mean±SEM.
A stock solution of 10 mM compound of Formula I is prepared in 0.1 M HCl or DMSO. […] The final DMSO concentration was kept at 0.1% in all solutions. Direct application of the perfusion solution to the clamped cell is achieved using the Perfusion Pencil system (Automate, Berkeley, Calif.). Direct cell perfusion is driven by gravity at a flow rate of 350 μL/min using a 250 micron tip. This system sequesters the clamped cell within a perfusion stream and enables complete solution exchange within 1 second. The clamped cell is perfused continuously starting immediately after establishing the whole-cell configuration. Control currents are measured during control solution perfusion.
Solutions are perfused for three minutes prior to current recordings to allow equilibrium (tonic) drug block. Tonic block of peak currents is measured from this steady-state condition. Three sequential current traces are averaged to obtain a mean current for each recording. The mean current traces are utilized for offline analysis. Use-dependent block of peak current is measured during pulse number 300 of the pulse train, (−10 mV, 5 ms, 300 pulses, 10 Hz) from a holding potential of −120 mV.

[6] = HEK293, % Inhibition at 1 uM, read-out: Late INa*
[7] = HEK293, percent block of late INa, compound at 1 μM, 10 μM Tefluthrin, read-out: Late INa 1 μM
[8] = tonic block of peak INa, 0.1 Hz, read-out: Peak TB 1 μM
[9] = use-dependent block of peak INa, 3 Hz, read-out: Peak UDB 1 μM

Sequence of hERG potassium channel (Q12809 whole entry): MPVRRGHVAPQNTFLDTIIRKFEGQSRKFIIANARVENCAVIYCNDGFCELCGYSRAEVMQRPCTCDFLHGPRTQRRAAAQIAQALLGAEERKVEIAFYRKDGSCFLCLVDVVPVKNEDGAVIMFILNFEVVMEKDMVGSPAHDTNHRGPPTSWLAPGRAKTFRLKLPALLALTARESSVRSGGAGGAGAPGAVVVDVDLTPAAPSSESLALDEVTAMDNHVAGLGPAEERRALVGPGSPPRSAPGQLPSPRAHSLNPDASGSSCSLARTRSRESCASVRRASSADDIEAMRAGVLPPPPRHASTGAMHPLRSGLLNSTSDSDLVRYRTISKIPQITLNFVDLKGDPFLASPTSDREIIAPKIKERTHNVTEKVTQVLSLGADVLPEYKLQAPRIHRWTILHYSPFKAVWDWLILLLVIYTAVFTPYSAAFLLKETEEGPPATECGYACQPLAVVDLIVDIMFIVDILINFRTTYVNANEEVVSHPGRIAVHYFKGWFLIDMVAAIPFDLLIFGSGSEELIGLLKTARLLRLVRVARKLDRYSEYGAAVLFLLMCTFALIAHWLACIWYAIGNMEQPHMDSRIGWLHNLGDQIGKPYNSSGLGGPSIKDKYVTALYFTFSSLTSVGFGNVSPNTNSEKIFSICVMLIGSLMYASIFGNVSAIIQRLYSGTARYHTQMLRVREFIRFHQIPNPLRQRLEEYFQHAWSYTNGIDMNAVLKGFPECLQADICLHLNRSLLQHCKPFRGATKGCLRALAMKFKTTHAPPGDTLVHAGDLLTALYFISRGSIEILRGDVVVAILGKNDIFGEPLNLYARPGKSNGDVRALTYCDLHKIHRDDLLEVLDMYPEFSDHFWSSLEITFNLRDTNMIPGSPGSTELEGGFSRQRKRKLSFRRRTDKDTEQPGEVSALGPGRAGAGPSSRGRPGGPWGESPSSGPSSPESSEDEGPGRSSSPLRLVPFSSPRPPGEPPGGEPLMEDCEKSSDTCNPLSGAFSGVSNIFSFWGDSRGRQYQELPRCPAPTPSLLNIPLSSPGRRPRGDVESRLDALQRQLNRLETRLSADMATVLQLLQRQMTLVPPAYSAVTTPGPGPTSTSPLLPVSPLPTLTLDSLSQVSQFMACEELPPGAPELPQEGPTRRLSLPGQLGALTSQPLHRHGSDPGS

Structure (SMILES)	hERG (hERG potassium channel)	area under curve (AUC) for the ST segment height reduced (vs. control) ([1]; 0.28 μM plasma concentration, iv bolus, 15 min ischemia) [%]	effect on blood pressure (BP), heart rate (HR) and ECG intervals prior to the ischemia ([1]; at the plasma concentration levels studied)	ischemia-induced ST elevation ([1]; iv bolus 30 min before 15 min ischemia)	inhibition at 1 µM [2, 6] [%]	inhibition at 1 µM [2, 7] [%]	inhibition at 1 µM [3, 8] [%]	inhibition at 1 µM [3, 9] [%]	inhibition at 1 µM [4] [%]	inhibition at 1 µM [5] [%]
O=C1c2cc(-c3ccc(C(F)(F)F)cc3)ccc2OCCN1Cc1ncccn1 [II-61, 4-(pyrimidin-2-ylmethyl)-7-(4-(trifluoromethyl)phenyl)-3,4-dihydrobenzo[f][1,4]oxazepin-5(2H)-one]	<10	38	no significant effect	dose-dependently prevented	–	–	–	–	–	–
Cc1cccc(CN2CCOc3ccc(-c4ccc(OC(F)(F)F)cc4)cc3C2=O)n1 [II-17, 4-((6-methylpyridin-2-yl)methyl)-7-(4-(trifluoromethoxy)phenyl)-3,4-dihydrobenzo[f][1,4]oxazepin-5(2H)-one]	<10	–	–	–	59	59	47	46	–	–
O=C1c2cc(-c3ccc(OC(F)(F)F)cc3)ccc2OCCN1CC1CC1 [II-10, 4-(cyclopropylmethyl)-7-(4-(trifluoromethoxy)phenyl)-3,4-dihydrobenzo[f][1,4]oxazepin-5(2H)-one]	–	–	–	–	43	43	9	2	-4	9
Cc1cccnc1CN1CCOc2ccc(-c3ccc(OC(F)(F)F)cc3)cc2C1=O [II-75, 4-((3-methylpyridin-2-yl)methyl)-7-(4-(trifluoromethoxy)phenyl)-3,4-dihydrobenzo[f][1,4]oxazepin-5(2H)-one]	–	–	–	–	68	68	45	59	35	52
Cc1ccnc(CN2CCOc3ccc(-c4ccc(OC(F)(F)F)cc4)cc3C2=O)n1 [II-138, 4-((4-methylpyrimidin-2-yl)methyl)-7-(4-(trifluoromethoxy)phenyl)-3,4-dihydrobenzo[f][1,4]oxazepin-5(2H)-one]	–	–	–	–	47	47	16	23	21	40
N#Cc1cccc(CN2CCOc3ccc(-c4ccc(OC(F)(F)F)cc4)cc3C2=O)n1 [II-14, 6-((5-oxo-7-(4-(trifluoromethoxy)phenyl)-2,3-dihydrobenzo[f][1,4]oxazepin-4(5H)-yl)methyl)picolinonitrile]	–	–	–	–	47	47	7	6	16	19
